Results: US11071720B2, “Cancer therapy” (UCL Business Ltd, priority 2016, dated 2021)

How the values were obtained:
MLL-AF9 = target: T1, MLL-AF9 (Homo sapiens, UniProt P42568+Q03164); test: Western blot analysis of MLL-fusion protein proteolysis in MLL-AF9 cells (V6MA.3, THP-1); type: cell-based
T1 construct: AF9 (MLLT3, P42568) portion as fusion partner; host or cells: THP-1 (endogenous fusion); V6MA.3 (MLL-AF9 immortalised cord blood)
Procedure: (§1) Human leukaemic cell lines (DSMZ) were cultured in Roswell Park Memorial Institute (RPMI) medium (Invitrogen), supplemented with 10% heat-inactivated FCS, 100 U/ml Penicillin (Invitrogen), 100 μg/ml Streptomycin (Invitrogen) and 2 mM L-glutamine (Invitrogen) (complete RPMI), or in Iscove's Modified Dulbecco's Medium (IMDM) (Invitrogen) supplemented with 20% heat-inactivated FCS, 100 U/ml Penicillin (Invitrogen), 100 μg/ml Streptomycin (Invitrogen) and 2 mM L-glutamine (Invitrogen)(complete IMDM).
(§2) SHI-I (MLL-AF6), THP-I (MLL-AF9) and MV4-11 (MLL-AF4) cell lines were treated with 300 nM of Disulfiram (Aldrich) or concentrations indicated and 1 μM of Copper chloride (Acros Organics) unless indicated otherwise for 16 hours.
(§3) Cells were lysed in Sample Reducing Buffer (200 mM DTT, 2% sodium dodecyl sulphate (SDS), 10% v/v Glycerol, 0.02% v/v Bromophenol Blue, 125 mM Tris HCl pH 6.8). The lysates were incubated for 5 minutes at 100° C., vortexed for 10 seconds and centrifuged at 13,200 rpm for 10 minutes at 4° C. The total cell lysate was then collected and stored at −20° C. or loaded immediately onto a polyacrylamide gel.
The whole cell lysate was electrophoresed in 7% Bis-Tris polyacrylamide gel and transferred to a odyssey nitrocellulose membrane (LI-COR). […]

H3K4me3 = test: Western blot analysis of H3K4me3 in MLL rearranged cell lines; type: cell-based, human; conditions: various MLL rearranged cell lines, 16 hrs in the presence of copper
HOXA9/HOXA10 and MEIS1 = test: RT-qPCR analysis of MLL target gene expression in SHI-I cells; type: cell-based, human; conditions: 16 hrs of treatment
Procedure: as §2

MLL rearranged cells = test: Methylcellulose colony formation assay; type: cell-based, human; conditions: 300 nM disulfiram; MLL rearranged cells vs other leukemic cell lines and CD34+ cord blood
Procedure: FIGS. 6A and 6B show, as explained in Example 1: in FIG. 6A, relative CFU corresponding to colony formation in MLL rearranged cells, other leukemic cell lines and CD34+ cord blood, in a methylcellulose colony formation assay after treatment of the cells with 300 nM disulfiram (equal numbers of cells were plated and normalised CFU frequency is shown, with error bars representing standard deviation); and, in FIG. 6B, the corresponding treated and control plates themselves.

MLL-AF6 = target: T2, MLL-AF6 (Homo sapiens, UniProt P55196+Q03164); test: Western blot analysis of MLL-fusion protein proteolysis in MLL-AF6 positive cell line SHI-I; type: cell-based; conditions: SHI-I cells
T2 construct: AF6 (AFDN, P55196) portion as fusion partner; host or cells: SHI-I (SHI-1) human leukaemic cell line
T2 sequence (Q03164 1146-1214 limits assumed, one chain of several): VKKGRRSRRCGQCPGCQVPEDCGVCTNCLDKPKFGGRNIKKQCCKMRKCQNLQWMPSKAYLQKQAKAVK
Procedure: as §1, §2, §3
The whole cell lysate was electrophoresed in 7% Bis-Tris polyacrylamide gel and transferred to a odyssey nitrocellulose membrane (LI-COR).
After blocked for 1 hr for non-specific binding in PBS-T with 5% of non-fat milk, blots were incubated with primary antibodies (MLL, mouse monoclonal 1:2000, Millipore; Vinculin, rabbit monoclonal 1:10000, Abcam) overnight at 4° C., followed by secondary IRDye conjugated antibodies (mouse IEDye800CW 1:10000; rabbit IRDye680RD 1:10000, LI-COR) at room temperature.
Blots were visualized using the Odyssey CLx.
SHI-I (MLL-AF6), and THP-I (MLL-AF9) cell lines were treated with 300 nM of Diethyldithiocarbamate (Aldrich) and 1 μM of Copper chloride (Acros Organics) unless indicated otherwise for 16 hours.
SHI-I (MLL-AF6) cell line was treated with 100 nM or 75 nm of Disulfiram (Aldrich) and 100 nM of Auranofin or 10 μM of Curcumin supplemented with 1 μM of Copper chloride (Acros Organics) for 16 hours.

[1] = tested on: MLL-AF9 and MLL-AF4 profiles; test: Gene Set Enrichment Analysis of treated SHI-I cells; type: cell-based, human; conditions: 16 hrs in the presence of copper
Procedure: as §2

MLL fusion proteins = test: Western blot, proteolysis of MLL fusion proteins (effect of copper; primary patient sample); type: cell-based, human
[2] = 16 hrs treatment in the presence of copper

T1 sequence (Q03164 1147-1203 limits assumed, one chain of several): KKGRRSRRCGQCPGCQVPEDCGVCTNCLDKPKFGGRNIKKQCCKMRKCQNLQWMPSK

SMILES | proteolysis of the MLL-fusion protein (Western blot) (MLL-AF9; MLL-AF9 immortalised cord blood V6MA.3, 16 hrs treatment in the presence of copper) | H3K4me3 level (Western blot) (H3K4me3) | MLL target gene expression level of HOXA9/HOXA10 and MEIS1, normalised to 18S (RT-qPCR) (HOXA9/HOXA10 and MEIS1) | relative CFU corresponding to colony formation (MLL rearranged cells) | proteolysis of the MLL-fusion protein (Western blot) (MLL-AF6; [2]) | proteolysis of the MLL-fusion protein (Western blot) (MLL-AF6; 16 hrs, in the presence of copper, with or without thioredoxin reductase inhibitors Auranofin and Curcumin) | Gene Set Enrichment Analysis versus published MLL-AF9 and MLL-AF4 profiles [1] | proteolysis of the MLL-fusion protein (Western blot) (MLL fusion proteins) | proteolysis of the MLL-fusion protein (Western blot) (MLL-AF9; MLL-AF9 positive cell line THP-1, 16 hrs treatment in the presence of copper)
CCN(CC)C(=S)SSC(=S)N(CC)CC [disulfiram] | showing proteolysis of the MLL-fusion protein | showing a decrease in H3K4me3 | efficient down-regulation of the target genes | substantially higher effect than in other (non-MLL) leukemic cell lines and CD34+ cord blood | showing proteolysis of the MLL-fusion protein | showing proteolysis of the MLL-fusion protein | negative enrichment to both published MLL-AF9 and MLL-AF4 profiles | showing proteolysis of the MLL-fusion protein in a primary patient sample | 
CCN(CC)C(=S)S [diethyldithiocarbamate, Diethyldithiocarbamic acid] |  |  |  |  | showing proteolysis of the MLL-fusion protein |  |  |  | showing proteolysis of the MLL-fusion protein
